Here are results for 17 compounds from patent publication US20220411750A1, “CELL STRUCTURE, PRODUCTION METHOD THEREOF, AND METHOD FOR EVALUATING HEPATOTOXICITY OF SUBSTANCE TO BE TESTED” (TOPPAN INC., priority 2019, published 2022).

The test system of series [1] is cell structure having a liver sinusoidal network produced using CMF (Example A). The settings on record: human.
Method: (§1) 100 mg of a type I collagen sponge fragment derived from pig skin (commercially available from NH Foods Ltd.) was heated at 200° C. for 24 hours, and thus a collagen component of which at least a part was cross-linked (cross-linked collagen component) was obtained. […] 50 mg of the cross-linked collagen component was put into a 15 mL tube, 5 mL of ultrapure water was added thereto, and the mixture was homogenized using a homogenizer (VH-10 commercially available from As One Corporation) for 6 minutes.
(§2) An aqueous solution containing the homogenized cross-linked collagen component was centrifuged at 10,000 rpm for 10 minutes under conditions of 21° C. The supernatant was suctioned, and collagen pellets were mixed with 5 mL of fresh ultrapure water to prepare a collagen solution. While the tube containing the collagen solution was kept on ice, an ultrasonic treatment was performed using a sonicator (VC50 commercially available from Sonics and Materials) at 100 V for 20 seconds, the sonicator was removed, and the tube containing the collagen solution was then cooled on ice for 10 seconds, which was repeated 100 times. After the ultrasonic treatment was performed 100 times, the collagen solution was filtered with a filter having a pore size of 40 μm to obtain a dispersion solution containing a defibrated collagen component (sCMF). The dispersion solution was freeze-dried by a conventional method to obtain a defibrated collagen component (sCMF) as a dried product.
(§3) A dispersion solution A in which the defibrated collagen component was dispersed in a medium (DMEM) containing serum in which 10 mg/mL of fibrinogen (commercially available from Sigma) was dissolved so that the concentration was 30 mg/mL was obtained. In addition, a dispersion solution B in which cells were dispersed in a medium (DMEM) containing serum in which 10 U/mL of thrombin (commercially available from Sigma) was dissolved so that the total number of cells per well was 30,000 cells. 10 μL of a suspension in which the obtained dispersion solution A (defibrated collagen component) and dispersion solution B were mixed at 1:1 was added to each well of a 48-well plate.
(§4) Regarding the medium, a mixed medium (mass ratio: 1:1) containing a medium for vascular endothelia 1 (ECM) and a medium for mesenchymal stem cell proliferation (MSCGM2), a medium for vascular endothelia 1 (ECM), or a medium for vascular endothelia 1 (ECM) and a medium for hepatocytes (d-HCGM) were used.
(§5) 10 days after the start of the culture, again, the medium was replaced with a medium in which the drug was dissolved, and after 14 days, the cell activity was quantified by ATP assay.
(§6) The toxicity was evaluated with IC50 and MOS value. The MOS value is an index used for toxicity evaluation as a value considering the maximum drug concentration (Cmax).
Series [2] has as its system cell structure having a liver sinusoidal network produced using heparin and a collagen solution (Example B). The settings on record: human.
Method: as §5
(§7) PXB cells, SEC and LX2 were mixed so that the following proportions and cell amount were obtained, and thereby a cell mixture was obtained. • Total amount of cells per well: 30,000 cells • Cell proportions in tissue:
(§8) The same amounts of 1.0 mg/mL heparin solution (buffer: 100 mM Tris-HCL) and 0.3 mg/mL collagen solution (buffer: 5 mM acetate) were mixed to obtain a heparin/collagen solution.
(§9) 100 μL of the heparin/collagen solution was added to the cell mixture and suspended until the cells were visible, and then centrifuged (400 g×2 min), and a viscous component was formed in the solution.
(§10) After the supernatant was removed from the solution containing the viscous component, a 20 U/mL thrombin solution (solvent: HCM (culture medium for hepatocytes)) was added so that the final volume of the solution was “the number of wells to be seeded”×2 μL volume of the solution, and thereby a cell suspension was obtained.
(§11) 10 mg/mL of a fibrinogen solution was put into a 48 plate, and droplets were formed. The cell suspension was added into the droplets, and then left in the incubator for 40 minutes, and a fibrin gel was formed.
(§12) 0.5 mL of HCM (containing endothelial cell growth supplement) was added to each well in which the fibrin gel was formed, and a liver model was obtained as a cell structure.
as §6
For series [3] the following is noted: cited from earlier work; for Toxicity: Yes/No, Yes for No. 1-14, No for No. 15-18.
Series [4] has as its system cell structure having a liver sinusoidal network produced using CMF (Example A). Nature of the series: Toxicity evaluation by ATP assay, cell structure of Example A (produced using CMF). To be noted: for IC50: Homo sapiens, read-out: IC50 Example A; for IC50 Example A: ATP assay, drug medium from day 7, replaced day 10, assay after 14 days; for IC50 Example A / MOS value [IC50/Cmax] Example A: cell structure produced using CMF, "Outside" = Outside measurement range; for MOS value [IC50/Cmax] Example A: ATP assay IC50 divided by Cmax.
Method: as §1, §2, §3, §4, §5, §6

Series [5] has as its system cell structure having a liver sinusoidal network produced using heparin and a collagen solution (Example B). In words: Toxicity evaluation by ATP assay, cell structure of Example B (produced using heparin and a collagen solution). The settings on record: for IC50: Homo sapiens, read-out: IC50 Example B; for IC50 Example B: ATP assay, cell structure produced using heparin and collagen solution.
Method: as §5, §7, §8, §9, §10, §11, §12, §6

Series [6] concerns two-dimensional primary human hepatocytes (2D PHH). The settings on record: literature data, "Outside" = Outside measurement range; cited from earlier work.
Series [7] has as its system 3D human liver microtissues (3D hLiMT). The settings on record: literature data, "Outside" = Outside measurement range; cited from earlier work.
The conditions of series [8]: maximum drug concentration used for MOS value; cited from earlier work.
The test system of series [9] is liver sinusoidal network of liver model (PXB cells, SEC, LX2). In words: Monocrotaline administration experiment, CD31 immunostaining of liver model. The class given is cell-based, human. To be noted: monocrotaline 2,000, 666, 222 or 74 μM on Day 1 and Day 4; observed Day 7; 1% DMSO. The protocol:
1 day (Day 1) and 4 days (Day 4) after the start of the culture of the liver model, administration was performed on the liver model by replacing the medium with a medium containing monocrotaline at a concentration of 2,000 μM, 666 μM, 222 μM, or 74 μM. Here, the compound used was dissolved in advance in DMSO at a high concentration and stored, and during administration, DMSO was contained at a concentration of 1% in the medium. Since 1% DMSO was contained in each administration condition, replacement of the medium with a medium containing only 1% DMSO was performed at the same time, and the result was used as a negative control.
For the samples on which administration was performed, a fixing treatment, a permeation treatment, blocking, a primary antibody treatment, a secondary antibody treatment, imaging and area calculation and evaluation were performed in that order. Hereinafter, the procedure from the fixing treatment to evaluation will be described. […]
The intensities of the images captured by the above method were added up to obtain a fluorescence observation image of each liver model.

The mark [10] stands for this setting: "Outside" = Outside measurement range.

Read-outs that look alike come from different tables or passages of the source.

Turning to `C1CCC(C(CC2CCCCN2)C2CCCCC2)CC1` (stereo not drawn) [Perhexiline], in series [1], the “MOS value [IC50/Cmax] Example A” value came to 2.5. Moreover, the “MOS value [IC50/Cmax] Example B” value in series [2] is reported as 1.5. In [3], the Toxicity result is listed as “Yes”. In addition, the IC50 worked out at 5.4 µM in [4] and 3.2 µM in [5].

For `O=P1(N(CCCl)CCCl)NCCCO1` (stereo not drawn) [Cyclophosphamide], the “MOS value [IC50/Cmax] Reference Example A” value in series [6] is “Outside”. For the same compound, the “MOS value [IC50/Cmax] Reference Example B” value in series [7] is listed as “Outside”. For the same compound, in series [3], the Toxicity result is given as “Yes”. Further, in series [8], the highest concentration (Cmax) is 143 µM. The IC50 stood at 1670 µM in series [4] and 1360 µM in series [5].

Turning to `CN(C)C(=O)Oc1ccc[n+](C)c1` [Pyridostigmine], in [3], the Toxicity result is listed as “No”. The Cmax in series [8] is 1.1 µM. The “IC50 Example A” value in [4] is “Outside”. Also, in series [5] (setting [10]), the “IC50 Example B” value is reported as “Outside”.

On to `CCOC(=O)CN[C@@H](C(=O)N1CC[C@H]1C(=O)NCc1ccc(/C(N)=N\O)cc1)C1CCCCC1` [Ximelagatran], for which the Toxicity entry in series [3] is on record as “Yes”. Besides, the Cmax in series [8] is 0.45 µM.

Turning to `CN(CCOc1ccc(CC2SC(=O)NC2=O)cc1)c1ccccn1` (stereo not drawn) [Rosiglitazone], in [6], the “MOS value [IC50/Cmax] Reference Example A” value was “Outside”. Further, the Toxicity result in [3] is “Yes”. The Cmax in [8] was 1.04 µM. Moreover, the IC50 in series [4] stood at 46.5 µM; in [5] it was 79.1 µM.

Regarding `C[C@H]1C(=O)O[C@@H]2CCN3CC=C(COC(=O)[C@](C)(O)[C@]1(C)O)[C@H]23` [monocrotaline], the “Fragmentation of liver sinusoidal network (CD31 immunostaining)” value in series [9] is recorded as “liver sinusoidal network became fragmented as the monocrotaline concentration increased”.

As to `C[C@H]1COc2c(N3CCN(C)CC3)c(F)cc3c(=O)c(C(=O)O)cn1c23` [Levofloxacin], the “MOS value [IC50/Cmax] Reference Example A” value in series [6] was “Outside”. In series [7], the “MOS value [IC50/Cmax] Reference Example B” value is “Outside”. Further, the Toxicity result in series [3] is “Yes”. Besides, the Cmax in [8] was 15.8 µM. Moreover, the “MOS value [IC50/Cmax] Example A” value in series [4] is given as “Outside”. Besides, the IC50 in series [5] was determined as 960 µM.

Regarding `Cc1ccc(C(=O)c2cc(O)c(O)c([N+](=O)[O-])c2)cc1` [Tolcapone], in series [3], the Toxicity result is “Yes”. Moreover, the Cmax in series [8] is 47.6 µM. In addition, the half-maximal inhibitory concentration (IC50) turned out to be 32.4 µM in series [4] and 88.7 µM in series [5].

For the compound `Cc1ccc(N(CC2=NCCN2)c2cccc(O)c2)cc1` [Phentolamine], in [3], the Toxicity entry is listed as “No”. Also, in [8], the peak concentration (Cmax) is 0.09 µM. The IC50 in series [4] came to 180 µM; in series [5] it was 66 µM.

Take `CCOC(=O)c1ncn2c1CN(C)C(=O)c1cc(F)ccc1-2` [Flumazenil]: the “MOS value [IC50/Cmax] Reference Example A” value in series [6] is reported as “Outside”. In addition, the “MOS value [IC50/Cmax] Reference Example B” value in [7] is given as “Outside”. In addition, the Toxicity result in series [3] was “No”. Also, in series [3] (drug-induced liver injury severity category), the “DILI severity category (LKBT)” value is “I”. In addition, the maximum concentration (Cmax) in series [8] is 1.12 µM. In series [4], the “MOS value [IC50/Cmax] Example A” value is “Outside” and the “IC50 Example A” value was “Outside”. Further, in series [5] (ATP assay IC50 divided by Cmax, cell structure produced using heparin and collagen, "Outside" = Outside measurement range), the “MOS value [IC50/Cmax] Example B” value was “Outside”. Moreover, the “IC50 Example B” value in [5] (setting [10]) is reported as “Outside”.

As for `CCc1nn(CCCN2CCN(c3cccc(Cl)c3)CC2)c(=O)n1CCOc1ccccc1` [Nefazodone], the Toxicity entry in series [3] is reported as “Yes”. Besides, the Cmax in [8] is 4.26 µM. The IC50 is 22.1 µM in [4] and 32.4 µM in [5].

Take `Nc1cc(N2CCCCC2)nc(N)[n+]1[O-]` [Minoxidil0]: the peak concentration (Cmax) in series [8] is 1.19 µM. Also, in [4], the “IC50 Example A” value is recorded as “Outside”. Also, the “IC50 Example B” value in [5] (setting [10]) is “Outside”.

As for `Cc1onc(-c2c(F)cccc2Cl)c1C(=O)N[C@@H]1C(=O)N2[C@@H]1SC(C)(C)[C@@H]2C(=O)O` [Flucloxacillin], the Toxicity result in series [3] is “Yes”. For the same compound, the Cmax in series [8] was 66.1 µM. Moreover, the concentration for half-maximal inhibition (IC50) was 1390 µM in series [4] and 5800 µM in series [5].

As to `COc1ccccc1Oc1c(NS(=O)(=O)c2ccc(C(C)(C)C)cc2)nc(-c2ncccn2)nc1OCCO` [Bosentan], the “MOS value [IC50/Cmax] Reference Example A” value in series [6] is reported as “Outside”. Moreover, the Toxicity entry in [3] is on record as “Yes”. Further, the Cmax in [8] was 7.43 µM. The IC50 in series [4] came to 67.1 µM; in series [5], 209 µM.

For `O=C(O)Cc1ccccc1Nc1c(Cl)cccc1Cl` [Diclofenac], the peak concentration (Cmax) in [8] was 10.1 µM. Further, the IC50 in series [4] was 64.1 µM; in [5], 232 µM.

In the case of `Cc1c(C)c2c(c(C)c1O)CCC(C)(COc1ccc(CC3SC(=O)NC3=O)cc1)O2` (stereo not drawn) [Troglitazone], the Toxicity entry in [3] was “Yes”. In addition, the half-maximal inhibitory concentration (IC50) in [4] stood at 17.1 µM; in [5] it was 50.2 µM.

Consider `CC(=O)Nc1ccc(O)cc1` [Acetaminophen], for which the Toxicity entry in series [3] is on record as “Yes”. Besides, the highest concentration (Cmax) in series [8] was 165 µM. Further, the results for the IC50 in [4] and in series [5] were 761 µM and 868 µM, respectively.
